Calls of active or inactive are those of the source. The rule behind the calls is not given here.
System: GENE-TOX genotoxicity assays, various organisms and cells
Assay: GENE-TOX mutagenicity studies
Conditions: for call: Assay Type: In vivo carcinogenicity studies
[1] = Species/Cell Type: Chinese hamster lung (V79) cells, Assay Type: Forward gene mutation at the HPRT or ouabain locus, Assay Code: V79+, Evaluation Type: Evaluation A (Pre-1980)
[2] = Species/Cell Type: Human lymphocytes, Assay Type: Sister-chromatid exchange (SCE) in vitro, Assay Code: SCL+D, Dose Response: With dose response, Evaluation Type: Evaluation B (Post-1980)
[3] = Species/Cell Type: Human, Assay Type: Sister-chromatid exchange (SCE) in vitro, Assay Code: SC1+D, Dose Response: With dose response, Evaluation Type: Evaluation B (Post-1980)
[4] = Species/Cell Type: Salmonella typhimurium (one or more of the five standard strains: TA98, TA100, TA1535, TA1537, and TA1538), Assay Type: Histidine reverse gene mutation, Ames assay, Assay Code: SAL+, Evaluation Type: Evaluation A (Pre-1980)
[5] = Species/Cell Type: Drosophila melanogaster, Assay Type: Sex-linked recessive lethal gene mutation, Assay Code: SRLT, Evaluation Type: Evaluation A (Pre-1980)
[6] = Species/Cell Type: Salmonella typhimurium (one or more of the five standard strains: TA98, TA100, TA1535, TA1537, and TA1538), Assay Type: Histidine reverse gene mutation, Ames assay, Assay Code: SAL-, Evaluation Type: Evaluation A (Pre-1980)
[7] = Species/Cell Type: Syrian hamster embryo (SHE) cells, Assay Type: Cell transformation, clonal assay, Assay Code: CTC-, Evaluation Type: Evaluation A (Pre-1980)
[8] = Species/Cell Type: Salmonella typhimurium (one or more of the five standard strains: TA98, TA100, TA1535, TA1537, and TA1538), Assay Type: Histidine reverse gene mutation, Ames assay, Assay Code: SALT, Evaluation Type: Evaluation A (Pre-1980)
[9] = Species/Cell Type: Mammalian polychromatic erythrocytes, Assay Type: Micronucleus test, chromosome aberrations, Assay Code: MNT+, Evaluation Type: Evaluation B (Post-1980)
[10] = Species/Cell Type: Salmonella typhimurium (one or more of the five standard strains: TA98, TA100, TA1535, TA1537, and TA1538), Assay Type: Histidine reverse gene mutation, Ames assay, Assay Code: SAL+*, Activation: With metabolic activation, Evaluation Type: Evaluation A (Pre-1980)
[11] = Species/Cell Type: Rodents, Sex: Male, Assay Type: Dominant lethal test, Assay Code: DLT-, Evaluation Type: Evaluation A (Pre-1980)
[12] = Species/Cell Type: Drosophila melanogaster, Assay Type: Sex-linked recessive lethal gene mutation, Assay Code: SRL+, Evaluation Type: Evaluation A (Pre-1980)
[13] = Species/Cell Type: Saccharomyces cerevisiae, Assay Type: Mitotic recombination or gene conversion, Assay Code: YEC+, Evaluation Type: Evaluation A (Pre-1980)

COc1cccc2c1C(=O)c1c(O)c3c(c(O)c1C2=O)C[C@@](O)(C(C)=O)C[C@@H]3O[C@H]1C[C@H](N)[C@H](O)[C@H](C)O1
mutagenic call [1]: active; positive | mutagenic call (Species/Cell Type: Chinese hamster ovary (CHO) cells, Assay Type: Forward gene mutation at the HPRT locus, Assay Code: CHO+, Evaluation Type: Evaluation B (Post-1980)): active; positive | mutagenic call (Species/Cell Type: Glycine max (soybean), Assay Type: Gene mutation, Assay Code: GLMT, Evaluation Type: Evaluation A (Pre-1980)): no conclusion | mutagenic call (Species/Cell Type: Human cell culture, Assay Type: Chromosome aberrations in vitro, Assay Code: CYZ+D, Dose Response: With dose response, Evaluation Type: Evaluation A (Pre-1980)): active; positive | mutagenic call (Species/Cell Type: Human lymphocytes or leukocytes, Assay Type: Chromosome aberrations in vitro, Assay Code: CY7+, Evaluation Type: Evaluation A (Pre-1980)): active; positive | mutagenic call [2]: active; positive | mutagenic call [3]: active; positive | mutagenic call (Species/Cell Type: Nonhuman bone marrow, Assay Type: Chromosome aberrations, in vivo, Assay Code: CY#+, Evaluation Type: Evaluation A (Pre-1980)): active; positive | mutagenic call (Species/Cell Type: Nonhuman lymphocytes or leukocytes, Assay Type: Chromosome aberrations in vivo, Assay Code: CY%+, Evaluation Type: Evaluation A (Pre-1980)): active; positive | call (Species/Cell Type: Nonhuman, Assay Code: CCG+, Evaluation Type: Evaluation A (Pre-1980)): active; positive | mutagenic call (Species/Cell Type: Nonhuman, Assay Type: Sister-chromatid exchange (SCE) in vitro, Assay Code: SC2+, Evaluation Type: Evaluation B (Post-1980)): active; positive | mutagenic call (Species/Cell Type: Nonhuman, Assay Type: Sister-chromatid exchange (SCE) in vivo, Assay Code: SC3+D, Dose Response: With dose response, Evaluation Type: Evaluation B (Post-1980)): active; positive | mutagenic call [4]: active; positive | mutagenic call (Species/Cell Type: Vicia faba, Assay Type: Chromosome aberrations, Assay Code: VIC+D, Dose Response: With dose response, Evaluation Type: Evaluation A (Pre-1980)): active; positive

Cc1ccc2nc3ccccc3cc2c1
mutagenic call (Species/Cell Type: Saccharomyces cerevisiae, Assay Type: Forward gene mutation, Assay Code: YEFT, Evaluation Type: Evaluation A (Pre-1980)): no conclusion

O=c1[nH]c(=O)n([C@H]2C[C@H](O)[C@@H](CO)O2)cc1I
mutagenic call (Species/Cell Type: Arabidopsis species, Assay Type: Gene mutation, Assay Code: ARM-, Evaluation Type: Evaluation A (Pre-1980)): inactive; negative | mutagenic call [5]: no conclusion | mutagenic call (Species/Cell Type: Escherichia coli polA (W3119 vs P3478), Assay Type: Rec-assay, DNA effects (bacterial DNA repair), Assay Code: RE1T, Evaluation Type: Evaluation A (Pre-1980)): no conclusion | mutagenic call (Species/Cell Type: Human diploid fibroblasts, Assay Type: Unscheduled DNA synthesis (UDS) in vitro, DNA effects, Assay Code: UDH-, Evaluation Type: Evaluation A (Pre-1980)): inactive; negative | mutagenic call [2]: active; positive | mutagenic call [3]: active; positive | mutagenic call (Species/Cell Type: Mammalian polychromatic erythrocytes, Assay Type: Micronucleus test, chromosome aberrations, Assay Code: MNTT, Evaluation Type: Evaluation A (Pre-1980)): no conclusion | mutagenic call (Species/Cell Type: Mouse, Sex: Male, Assay Type: Sperm morphology, Assay Code: SPI+, Evaluation Type: Evaluation A (Pre-1980)): active; positive | mutagenic call (Species/Cell Type: Saccharomyces cerevisiae, Assay Type: Mitotic recombination or gene conversion, Assay Code: YEH-*, Activation: With metabolic activation, Evaluation Type: Evaluation A (Pre-1980)): inactive; negative | mutagenic call [6]: inactive; negative | mutagenic call (Species/Cell Type: Salmonella typhimurium, Assay Type: Forward and reverse gene mutation, host-mediated assay, Assay Code: HMA-, Evaluation Type: Evaluation A (Pre-1980)): inactive; negative | mutagenic call (Species/Cell Type: Syrian hamster embryo (SA7/SHE) cells, Assay Type: Cell transformation, viral enhanced, Assay Code: CT7+, Evaluation Type: Evaluation A (Pre-1980)): active; positive | mutagenic call [7]: inactive; negative

O=C(O)c1c(Cl)c(Cl)c(Cl)c(Cl)c1-c1c2cc(Br)c(=O)c(Br)c-2oc2c(Br)c(O)c(Br)cc12
mutagenic call (Species/Cell Type: Bacillus subtilis (H17 vs M45), Assay Type: Rec-assay, spot test, DNA effects (bacterial DNA repair), Assay Code: REWT, Evaluation Type: Evaluation A (Pre-1980)): no conclusion

CCNCC
mutagenic call (Species/Cell Type: Saccharomyces cerevisiae, Assay Type: Forward gene mutation, Assay Code: YEF-*, Activation: With metabolic activation, Evaluation Type: Evaluation A (Pre-1980)): inactive; negative

Cc1c(C2(c3cc(Br)c(O)c(Br)c3C)OS(=O)(=O)c3ccccc32)cc(Br)c(O)c1Br
mutagenic call (Species/Cell Type: Bacillus subtilis (H17 vs M45T), Assay Type: Rec-assay, spot test, DNA effects (bacterial DNA repair), Assay Code: REXT, Evaluation Type: Evaluation A (Pre-1980)): no conclusion | mutagenic call [8]: no conclusion

Clc1cccc(Br)c1
mutagenic call [6]: inactive; negative

Nc1ccc(O)c(N)c1
mutagenic call (Species/Cell Type: Allium cepa, Assay Type: Chromosome aberrations, Assay Code: ALC-, Evaluation Type: Evaluation A (Pre-1980)): inactive; negative

O=c1c(=O)c2cc3ccccc3c3ccc4cccc1c4c23
mutagenic call (Species/Cell Type: Chinese hamster lung (V79) cells, Assay Type: Forward gene mutation at the HPRT or ouabain locus, Assay Code: V79-, Evaluation Type: Evaluation A (Pre-1980)): inactive; negative | mutagenic call [8]: no conclusion

OCCCCO
mutagenic call [5]: no conclusion

CN(N=O)C(=O)NC1O[C@H](CO)[C@@H](O)[C@H](O)[C@H]1O (some centres not stated)
mutagenic call [1]: active; positive

COP(=S)(OC)Oc1cc(Cl)c(Br)cc1Cl
mutagenic call [5]: no conclusion

C=CCc1ccc(O)c(OC)c1
mutagenic call (Species/Cell Type: Human lymphocytes, Assay Type: Sister-chromatid exchange (SCE) in vitro, Assay Code: SCLT, Evaluation Type: Evaluation B (Post-1980)): no conclusion | mutagenic call [9]: active; positive | mutagenic call (Species/Cell Type: Salmonella typhimurium, Assay Type: Forward and reverse gene mutation, host-mediated assay, Assay Code: HMAT, Evaluation Type: Evaluation A (Pre-1980)): no conclusion

Clc1ccc(Cl)c(Cl)c1
mutagenic call [9]: active; positive

Cc1cc2c3ccccc3ccc2c2ccccc12
mutagenic call [10]: active; positive

N#CO
mutagenic call (Species/Cell Type: Arabidopsis species, Assay Type: Gene mutation, Assay Code: ARM+, Evaluation Type: Evaluation A (Pre-1980)): active; positive

Nc1ccc(S(=O)(=O)O)c2ccccc12
mutagenic call [8]: no conclusion

BrCC(Br)CBr
mutagenic call [4]: active; positive

Cc1cc2c(c3ccc4ccccc4c13)CCC2C (configuration not stated)
mutagenic call [10]: active; positive

C[C@H](CCC(=O)O)[C@H]1CC[C@H]2[C@@H]3CC[C@@H]4C[C@H](OS(=O)(=O)O)CC[C@]4(C)[C@H]3CC[C@]12C
mutagenic call [7]: inactive; negative

CN(C)CCCN1c2ccccc2Sc2ccccc21
mutagenic call (Species/Cell Type: Nonhuman, Assay Type: Sister-chromatid exchange (SCE) in vitro, Assay Code: SC2+D, Dose Response: With dose response, Evaluation Type: Evaluation A (Pre-1980)): active; positive

CN/C(=C\[N+](=O)[O-])NCCSCc1ccc(CN(C)C)o1
mutagenic call (Species/Cell Type: Nonhuman, Assay Type: Sister-chromatid exchange (SCE) in vivo, Assay Code: SC3T, Evaluation Type: Evaluation B (Post-1980)): no conclusion

BrCC(Br)C(Br)CBr (configuration not stated)
mutagenic call [11]: inactive; negative

CCN(CC)c1ccc2cc3ccc(=[N+](CC)CC)cc-3oc2c1
mutagenic call [12]: active; positive

Nc1ccc(O)c([N+](=O)[O-])c1
mutagenic call (Species/Cell Type: Fischer rat embryo (RLV/1706) cells, Assay Type: Cell transformation, viral enhanced, Assay Code: CTR+, Evaluation Type: Evaluation A (Pre-1980)): active; positive | call (Species/Cell Type: Nonhuman, Assay Code: CCG+L, Evaluation Type: Evaluation A (Pre-1980)): active; positive | mutagenic call [11]: inactive; negative

COC(=O)Nc1nc2ccccc2[nH]1
mutagenic call (Species/Cell Type: Allium cepa, Assay Type: Chromosome aberrations, Assay Code: ALC+, Evaluation Type: Evaluation A (Pre-1980)): active; positive | mutagenic call (Species/Cell Type: Aspergillus nidulans, Assay Type: Aneuploidy, chromosome aberrations, Assay Code: ASN+, Evaluation Type: Evaluation A (Pre-1980)): active; positive | mutagenic call (Species/Cell Type: Aspergillus nidulans, Assay Type: Mitotic recombination, Assay Code: ASGT, Evaluation Type: Evaluation A (Pre-1980)): no conclusion | mutagenic call [2]: active; positive | mutagenic call [3]: active; positive | mutagenic call (Species/Cell Type: Mouse, Sex: Female, Assay Type: Spot test, gene mutation, Assay Code: MST+, Evaluation Type: Evaluation A (Pre-1980)): active; positive | mutagenic call [13]: active; positive | mutagenic call (Species/Cell Type: Saccharomyces cerevisiae, Assay Type: Mitotic recombination or gene conversion, Assay Code: YEH+, Evaluation Type: Evaluation A (Pre-1980)): active; positive

CN(C)c1ccc2nc3c(C(=O)O)cc(=O)c(O)c-3oc2c1
mutagenic call [5]: no conclusion

O=NN(CCCl)C(=O)NCCCCCNC(=O)N(CCCl)N=O
mutagenic call [12]: active; positive | mutagenic call [13]: active; positive
